Source: patent publication US8853424B2 (Japan Science and Technology Agency, priority 2008, dated 2014)
Where two headings read alike, the source gives them in different places.

How the values were obtained:
[1] = system: Truncated N-terminal huntington 150 Q-EGFP-Neuron 2a cells; experiment: Measurement of x-Fold (polyglutamine aggregation inhibitory activity); format: cell-based
Procedure: In the present invention, the polyglutamine aggregation inhibitory activity (x-Fold) can be measured, for example, by the method described in the Example.
The number of the aggregated cells, and the total number of cells were counted by Array Scan V T1 (manufactured by Cellomics, Pittuburg, USA), and the ratio of the aggregated cells to the total number of cells was determined (x-Fold). […]

transglutaminase (TGase) = experiment: Measurement of TG (TGase inhibitory activity, monodansyl cadaverine / N,N-dimethylcasein fluorescence, FDSS 3000); format: biochemical
Method in brief: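 Compound (1 μL of 10 mM stock) added to 0.1 mL reaction: 100 mM HEPES-NaOH pH 7.5, 1 mM CaCl2, 20 μM monodansyl cadaverine, 0.05 mg/mL N,N-dimethylcasein, 5 μg/mL TGase. Rate of fluorescence change at 340 nm measured; DMSO control set to 100; TG50 is the concentration halving activity.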

[2] = system: SOC (store operated calcium channel); experiment: Measurement of SOC IC50 (thapsigargin store depletion, calcium re-addition, CHO cells); format: cell-based; details: read-out: SOC IC50
Procedure: The SOC (store operated calcium channel)-suppressive action can be measured by the method described in the Example and using, for example, FDSS 3000.
CHO cell culture medium was replaced with a BSS solution which is an extracellular fluidfree of calcium, the compound of the present invention was added 1 min later, and 1 μM thapsigargin was allowed to act thereon 2 min later to deplete intracellular calcium store. […]

[3] = ratio of aggregated cells to total number of cells, compound 20 μM, 20 hr, almost 1 without compound, smaller = stronger inhibition
[4] = TGase activity with compound (10 mM, 1 μL in 0.1 ml enzyme reaction solution), DMSO control taken as 100
[5] = Cricetulus griseus, CHO, CHO cells, 1 μM thapsigargin, 2 mM calcium chloride
[6] = Cricetulus griseus, CHO, Table 1
[7] = polyglutamine aggregation inhibitory activity, Table 1
[8] = TGase inhibitory activity value, Table 1
[9] = CHO cells, 1 μM thapsigargin, 2 mM calcium chloride

| TGase activity remaining (% of DMSO control = 100) (transglutaminase (TGase); [4]) | IC50 [2, 5] | IC50 [2, 6] | TGase activity remaining (% of DMSO control = 100) (transglutaminase (TGase); [8]) | Compound | x-Fold [1, 3] | x-Fold [1, 7] | further results |
| --- | --- | --- | --- | --- | --- | --- | --- |
| 98 | 0.5 µM | 0.5 µM |  | NCCOB(c1ccc(Cl)c(F)c1)c1ccc(Cl)c(F)c1 [Example 234, di(4-chloro-3-fluoro-phenyl) 2-aminoethylborinate] | 1.07 |  | x-Fold ([1]; polyglutamine aggregation inhibitory activity, Table 1, listed as 4143): 1.07; TGase activity remaining (% of DMSO control = 100) (transglutaminase (TGase); TGase inhibitory activity value, Table 1, listed as 4143): 98 |
| 74 | 1 µM |  |  | Cc1ccc(Cl)cc1B(OCCN)c1cc(Cl)ccc1C [Example 244, di(5-chloro-2-methylphenyl) 2-aminoethylborinate] | 0.76 |  |  |
| 99 | 0.7 µM |  |  | Cc1ccc(B(OCC2CCCCN2)c2ccc(C)c(Cl)c2)cc1Cl (centres unmarked) [Example 247, di(3-chloro-4-methylphenyl) 2-piperidinomethylborinate] | 0.91 |  |  |
| 93 | 0.5 µM | 0.5 µM | 93 | OB(c1ccccc1)c1ccc(B(O)c2ccccc2)cc1 [Example 252, 1,4-bis(phenylhydroxyboryl)benzene] | 0.95 | 0.95 |  |
| 113 | 0.5 µM | 0.5 µM | 113 | O=C1O[B-](c2ccccc2)(c2ccccc2)[NH2+]C1CO (centres unmarked) [Example 255, diphenyl(serinate-O,N)borane] | 0.94 | 0.94 |  |
| 67 | 2.5 µM | 2.5 µM | 67 | O=C1O[B-](c2ccccc2)(c2ccccc2)[NH2+]C1Cc1ccccc1 (centres unmarked) [Example 259, diphenyl(phenylalaninate-O,N)borane] | 0.97 | 0.97 |  |
| 146 | 3 µM | 3 µM |  | NCCC(N)C(=O)OB(c1ccccc1)c1ccccc1 (centres unmarked) [Example 263, diphenyl(2,4-diaminolactonate-O,N)borane] | 0.89 |  | x-Fold ([1]; polyglutamine aggregation inhibitory activity, Table 1, listed as 2045): 0.89; TGase activity remaining (% of DMSO control = 100) (transglutaminase (TGase); TGase inhibitory activity value, Table 1, listed as 2045): 146 |
| 84 | 3 µM | 3 µM | 84 | NC(CS)C(=O)OB(c1ccccc1)c1ccccc1 (centres unmarked) [Example 266, diphenyl(cysteinate-O,N)borane] | 0.87 | 0.87 |  |
| 103 | 5 µM | 5 µM | 103 | O=C(OB(c1ccccc1)c1ccccc1)C1CC(O)CN1 (centres unmarked) [Example 268, diphenyl(hydroxyprolinate-O,N)borane] | 0.96 | 0.96 |  |
| 95 | 3 µM | 3 µM |  | NC(=O)CCC(N)C(=O)OB(c1ccccc1)c1ccccc1 (centres unmarked) [Example 269, diphenyl(glutaminate-O,N)borane] | 1.01 |  | x-Fold ([1]; polyglutamine aggregation inhibitory activity, Table 1, listed as 879): 1.01; TGase activity remaining (% of DMSO control = 100) (transglutaminase (TGase); TGase inhibitory activity value, Table 1, listed as 879): 95 |
| 111 | 0.7 µM | 0.7 µM |  | NC(=O)CC(N)C(=O)OB(c1ccccc1)c1ccccc1 (centres unmarked) [Example 270, diphenyl(asparaginate-O,N)borane] | 0.54 |  | x-Fold ([1]; polyglutamine aggregation inhibitory activity, Table 1, listed as 855): 0.54; TGase activity remaining (% of DMSO control = 100) (transglutaminase (TGase); TGase inhibitory activity value, Table 1, listed as 855): 111 |
| 109 | 0.5 µM | 0.5 µM | 109 | NCCCCC(N)C(=O)OB(c1ccccc1)c1ccccc1 (centres unmarked) [Example 271, diphenyl(lysinate-O,N)borane] | 1.07 | 1.07 |  |
| 83 | 0.3 µM | 0.3 µM |  | NCC(N)C(=O)OB(c1ccccc1)c1ccccc1 (centres unmarked) [Example 272, diphenyl(2,3-diaminopropionate-O,N)borane] | 0.09 |  | x-Fold ([1]; polyglutamine aggregation inhibitory activity, Table 1, listed as 2043): 0.09; TGase activity remaining (% of DMSO control = 100) (transglutaminase (TGase); TGase inhibitory activity value, Table 1, listed as 2043): 83 |
| 83 |  |  |  | NC(=O)CCC(N)C(=O)OB(c1ccccc1)c1ccc(Oc2ccc(B(OC(=O)C(N)CCC(N)=O)c3ccccc3)cc2)cc1 (centres unmarked) [Example 273, bis(4,4′-(phenyl-glutamineboryl)phenyl)ether] | 0.56 |  | x-Fold ([1]; polyglutamine aggregation inhibitory activity, Table 1, listed as 1024): 0.56; TGase activity remaining (% of DMSO control = 100) (transglutaminase (TGase); TGase inhibitory activity value, Table 1, listed as 1024): 83; IC50 [2, 9]: 0.25 µM |
| 56 |  |  |  | NC(=O)CC(N)C(=O)OB(c1ccccc1)c1ccc(Oc2ccc(B(OC(=O)C(N)CC(N)=O)c3ccccc3)cc2)cc1 (centres unmarked) [Example 274, bis(4,4′-(phenylasparagineboryl)phenyl)ether] | 0.59 |  | IC50 [2, 9]: 0.3 µM |
| 117 | 0.3 µM |  |  | NC(CCC(=O)O)C(=O)OB(c1ccccc1)c1ccc(Oc2ccc(B(OC(=O)C(N)CCC(=O)O)c3ccc(CO)cc3)cc2)cc1 (centres unmarked) [Example 275, (4-(phenyl-glutamic acid boryl)phenyl)-(4′-(hydroxymethylphenyl-glutamic acid boryl)phenyl)ether] | 0.67 |  |  |
| 105 | 0.3 µM | 0.3 µM | 105 | O=C(OB(c1ccccc1)c1ccccc1)C1CCCN1 (centres unmarked) [Example 277, diphenyl(prolinate-O,N)borane] | 0.98 | 0.98 |  |
| 2 | 0.3 µM | 0.3 µM | 2 | NCCOB(c1ccccc1)c1cccc(COCc2cccc(Oc3ccccc3)c2)c1 [Example 278, (3-phenoxybenzyl)-(3′-(phenyl-2-aminoethoxyboryl)benzyl)ether] | 1.08 | 1.08 |  |
| 112 | 0.3 µM |  |  | Cc1ccc(B(OC(=O)C(N)CC(N)=O)c2ccc(C)c(Cl)c2)cc1Cl (centres unmarked) [Example 282, di(3-chloro-4-methylphenyl)(asparaginate-O,N)borane] | 0.95 |  |  |
| 12 | 0.9 µM | 0.9 µM | 12 | Cc1ccc(B(Sc2ccccc2N)c2ccc(C)c(Cl)c2)cc1Cl [Example 283, di(3-chloro-4-methylphenyl) 2-aminophenylthioborane] | 0.83 | 0.83 |  |
| 51 | 2 µM | 2 µM | 51 | NCCSB(c1ccc(C(F)(F)F)cc1)c1ccc(C(F)(F)F)cc1 [Example 285, di(4-trifluoromethylphenyl) 2-aminoethylthioborane] | 0.99 | 0.99 |  |
| 50 | 0.5 µM | 0.5 µM | 50 | Cc1ccc(B(OC(=O)C(N)C(C)O)c2ccc(C)c(Cl)c2)cc1Cl (centres unmarked) [Example 291, di(3-chloro-4-methylphenyl)(allothreoninate-O,N)borane] | 1.02 | 1.02 |  |
